In patent EP3770254A1, “LIQUID P[…] TRANSGLUTAMINASE” (AJINOMOTO CO., INC., priority 2018, dated 2019):
Counter-ions that a name gives are not always drawn.

What was measured:
transglutaminase [1] = target: T1, transglutaminase (Streptomyces mobaraensis, UniProt P81453); assay: Experimental Example 1: accelerated test by high temperature storage, transglutaminase activity by hydroxamate method; assay type: physicochemical, microorganism; details: conclusion of Experimental Example 1; additive 10 wt%, 44°C 24 hr
T1 sequence (P81453 77-407): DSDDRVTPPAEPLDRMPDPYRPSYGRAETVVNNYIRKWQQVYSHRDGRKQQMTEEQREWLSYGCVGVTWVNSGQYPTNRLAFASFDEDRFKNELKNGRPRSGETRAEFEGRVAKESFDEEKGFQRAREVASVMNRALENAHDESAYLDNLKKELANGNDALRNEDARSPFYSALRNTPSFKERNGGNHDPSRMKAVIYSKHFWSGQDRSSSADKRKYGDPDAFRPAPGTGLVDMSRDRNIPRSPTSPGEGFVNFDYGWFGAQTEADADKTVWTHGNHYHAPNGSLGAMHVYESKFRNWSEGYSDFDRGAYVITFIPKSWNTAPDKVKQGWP
Protocol: The enzyme activity of transglutaminase can be measured and calculated by, for example, the hydroxamate method. That is, benzyloxycarbonyl-L-glutaminyl glycine is reacted with hydroxylamine as a substrate to form an iron complex of hydroxamic acid formed in the aforementioned reaction in the presence of trichloroacetic acid, the absorbance at 525 nm is measured, and the amount of hydroxamic acid produced is determined from the calibration curve, whereby the enzyme activity can be calculated.
The stability of transglutaminase in each liquid preparation of the above-mentioned Examples 1 - 5 and Comparative Example 1 was evaluated by an accelerated test by high temperature storage as follows.
Respective liquid preparations of the above-mentioned Examples 1 - 5 and Comparative Example 1 were stored at 4°C and 44°C for 24 hr, and the transglutaminase activity in the liquid preparation was measured by the above-mentioned hydroxamate method.
(§1) A liquid preparation obtained by dissolving only transglutaminase in a phosphate buffer was used as a control and treated in the same manner.

transglutaminase [2] = target: T1, transglutaminase; details: conclusion of Experimental Example 4; organic acid salt 10 wt%, 44°C 24 hr
Description: as §1

SMILES	transglutaminase stabilizing effect in a liquid preparation (transglutaminase [1])	stabilization of transglutaminase (transglutaminase [2])
NCC(=O)O [glycine, 2-aminoacetic acid]	has a transglutaminase stabilizing effect	
Cl.NCCCC[C@H](N)C(=O)O [lysine hydrochloride, reference compound]	not found	
O=C(O)C1CCCN1 (stereo not drawn) [proline, pyrrolidine-2-carboxylic acid]	has a transglutaminase stabilizing effect	
NC(CO)C(=O)O (stereo not drawn) [serine, 2-amino-3-hydroxypropionic acid]	has a transglutaminase stabilizing effect	
CC(=O)O [sodium acetate]		can also stabilize transglutaminase
N[C@@H](CC(=O)[O-])C(=O)[O-].[Na+].[Na+] [sodium aspartate]	has a transglutaminase stabilizing effect	
O=C(O)CC(O)(CC(=O)O)C(=O)O [sodium citrate]		can also stabilize transglutaminase
O=C([O-])[C@H](O)[C@@H](O)[C@H](O)[C@H](O)CO.[Na+] [sodium gluconate]		can also stabilize transglutaminase
N[C@@H](CCC(=O)[O-])C(=O)[O-].[Na+].[Na+] [sodium glutamate]	has a transglutaminase stabilizing effect	
